Assay results as given in the SangsterLogP compilation.

Experiments:
[1] = method code SF-C, from DOI: 10.1038/194178b0
[2] = method code SF, from DOI: 10.1248/yakushi1947.96.10_1169, PMID: 1033993; details: pH 0.7
[3] = method code SF-AS, from DOI: 10.1007/s001289900104, PMID: 8661852
[4] = method code SF-HPLC, from PMID: 3799213; details: pH 4.0
[5] = method code SF-AS, from DOI: 10.1016/0378-5173(90)90042-3
[6] = method code SF-AS, from DOI: 10.1021/bi00730a008, PMID: 4688860
[7] = method code SF-RC, from DOI: 10.1021/es60170a013
[8] = method code SF-AS, from DOI: 10.1016/j.bioorg.2006.09.003, PMID: 17078995; details: pH 7.4
[9] = method code SF-AS, from Korenman, Y.; Danilov, N. (1990). Extraction of alkyl salicylates from aqueous media. Journal of Applied Chemistry of the USSR, 63(1)125-129.
[10] = method code SF, from DOI: 10.1016/j.bmcl.2006.04.097, PMID: 16714112
[11] = not given; remark: listed apart in the source
[12] = not given; remark: listed apart in the source
[13] = not given; remark: listed apart in the source
[14] = method code SF, from DOI: 10.1021/bk-1995-0606.ch005
[15] = method code SF-GLC, from DOI: 10.1016/0378-4274(86)90173-6, PMID: 3952768
[16] = from Dutta, H.; Mehta, N.; SenGupta, M.; Pal, D.; Sengupta, C.; De, A. (1988). Dioxanide furoate: studies on its interaction with blood phospholipid in relation to partition coefficients of related drugs. …
[17] = not given; remark: listed apart in the source
[18] = method code SF-AS, from DOI: 10.1248/cpb.32.2380
[19] = method code SF-AS, from DOI: 10.1111/1523-1747.ep12263302, PMID: 6470515
[20] = method code SF-AS, from DOI: 10.1002/jhet.5570150704
[21] = method code SF-RC, from Audran, M.; Chanal, J.; Berge, G.; Marignan, R. (1983). Binding-structure correlation of bovine serum albumin in a series of cresotinamides. International Journal of Pharmaceutics, 15(3)273-284.; details: pH 1.0
[22] = not given; remark: listed apart in the source
[23] = method code SF, from DOI: 10.1002/1522-2675(20001004)83:10<2836::aid-hlca2836>3.0.co;2-g
[24] = from Kurihara, N.; Yamakawa, K.; Fujita, T.; Nakajima, M. (1980). Studies on BHC isomers and related compounds. XXVI. Anaerobic degradation of tetra-, penta- and hexachlorocyclohexane isomers by rat liver …
[25] = method code SF-AS, from DOI: 10.1021/jm00284a014, PMID: 5544400
[26] = method code SF-GLC, from PMID: 6629728; details: pH 7.4
[27] = not given; remark: listed apart in the source
[28] = method code SF-AS, from DOI: 10.1021/j150653a049
[29] = not given; remark: listed apart in the source
[30] = method code SF-AS, from DOI: 10.1016/0005-2728(86)90252-5, PMID: 3015209; details: pH 7.2
[31] = method code SF-AS, from DOI: 10.1016/0045-6535(83)90122-4
[32] = method code SF-C, from DOI: 10.1021/ja00901a033

SMILES: O=C(O)COc1ccc(Cl)cc1
- logP [1]: 2.23

SMILES: CCC1(C2CCCCC2)C(=O)NC(=O)N(C)C1=O (stereo unspecified)
- logD [2]: 2

SMILES: Clc1cc(-c2ncncn2)c(Cl)nn1
- logP [3]: 0.84

SMILES: CCOC(=O)OCn1cc(F)c(=O)[nH]c1=O
- logD [4]: -0.04

SMILES: CCCOC(=O)c1cc(=O)[nH]c(=O)[nH]1
- logP [5]: 1.1

SMILES: CCCCC(CCC)C(=O)O (stereo unspecified)
- logP: 3.01

SMILES: CC(=O)c1ccc(NC=O)cc1
- logP [6]: 0.94

SMILES: CCCCOC(=O)c1cc(=O)[nH]c(=O)[nH]1
- logP [5]: 1.33

SMILES: C=CCC1(CC)C(=O)NC(=O)N(C)C1=O (stereo unspecified)
- logD [2]: 1.35

SMILES: Clc1cccc(Cl)c1
- logP [7]: 3.44

SMILES: COc1cc(CCOC(C)=O)ccc1O
- logD [8]: 1.5

SMILES: COC(=O)c1ccccc1O
- logP [9]: 2.08

SMILES: Ic1ccccc1C1=NCCO1
- logP [10]: 2.3

SMILES: CCOC(=O)OCn1c(=O)[nH]cc(F)c1=O
- logD [4]: 0.15

SMILES: N#Cc1c(Cl)cccc1Cl
- logP [11]: 2.65

SMILES: CCCC(C)C(=O)O (stereo unspecified)
- logP: 1.8

SMILES: OCc1c(F)cccc1F
- logP [12]: 1.12

SMILES: CCNC(=O)c1cccnc1
- logP [13]: 0.31

SMILES: COC(=O)Nc1ccccc1
- logP [14]: 1.76

SMILES: CCCC(C)CCC(C)=O (stereo unspecified)
- logP [15]: 2.92

SMILES: CC(=O)Oc1ccc(N(C)C(=O)C(Cl)Cl)cc1
- logP [16]: 1.56

SMILES: COC(=O)c1ccccc1CS(=O)(=O)Nc1nc(OC)cc(OC)n1
- logD ([14]; pH 5.0): 2.4

SMILES: CCNc1nc(NCC)nc(SC)n1
- logP [17]: 2.63

SMILES: NS(=O)(=O)c1cc2c(cc1C(F)(F)F)NCNS2(=O)=O
- logP [18]: 0.36

SMILES: Nc1cc([N+](=O)[O-])ccc1O
- logP [19]: 1.13

SMILES: Cc1noc(-c2ccccn2)n1
- logP [20]: 0.89

SMILES: CNC(=O)c1cc(Br)cc(C)c1O
- logD [21]: 3.51

SMILES: Cc1cccc(C)c1C1=NCCO1
- logP [10]: 2.21

SMILES: COc1cccc(OC)c1C(=O)O
- logP [22]: 0.95

SMILES: CCC(=O)OCCc1ccc(O)c(OC)c1
- logD [8]: 2.33

SMILES: Nc1ccccc1-c1ccccc1
- logD ([23]; pH 5.5): 2.64

SMILES: O=C(O)COc1cccc(Br)c1
- logP [1]: 2.4

SMILES: ClC1=CC(Cl)C(Cl)C(Cl)C1Cl (stereo unspecified)
- logP [24]: 3.61

SMILES: CCCC(CC)C(=O)O (stereo unspecified)
- logP: 2.23

SMILES: S=c1[nH]c2ccccc2[nH]1
- logP [25]: 1.66

SMILES: C1COC2CC2C1 (stereo unspecified)
- logD [26]: 1.26

SMILES: CCC1C(=O)NC(=O)NC1=O
- logD [2]: -0.35

SMILES: CN1C(CSCC(F)(F)F)Nc2cc(Cl)c(S(N)(=O)=O)cc2S1(=O)=O (stereo unspecified)
- logP [18]: 1.9

SMILES: COc1cc(N)cc(OC)c1
- logP [17]: 0.99

SMILES: Cc1ncn(-c2ccc(Cl)cc2)c(=O)c1C(=O)O
- logP [27]: 2.26

SMILES: CCCCOC(=O)c1ccccc1O
- logP [9]: 4.63

SMILES: COc1ccc(S(N)(=O)=O)cc1
- logP [12]: 0.48

SMILES: Cc1cc(Br)cc(C(=O)NC2CC2)c1O
- logD [21]: 3.8

SMILES: ClC1=C(Cl)C(Cl)C(Cl)C(Cl)C1Cl (stereo unspecified)
- logP [24]: 4.31

SMILES: CCc1cccc(OCC(=O)O)c1
- logP [1]: 2.3

SMILES: C1CC2OC2CC1C1CO1 (stereo unspecified)
- logD [26]: 0.44

SMILES: Cc1ccc(O)c(CO)c1
- logP [28]: 0.97

SMILES: OCCc1ccc(O)c(O)c1
- logD [8]: 0.09

SMILES: C1=C\CC/C=C\CC/1
- logP [11]: 3.16

SMILES: CC(=O)Oc1ccc(NC(=O)C(Cl)Cl)cc1
- logP [16]: 1.9

SMILES: FC(F)(F)c1ccccc1C1=NCCO1
- logP [10]: 2.15

SMILES: CNc1ccc(C)cc1
- logP [29]: 2.15

SMILES: N#CC(C#N)=NNc1c(Cl)cccc1Cl
- logD [30]: 2.01

SMILES: Nc1ccc(Cl)c(N)c1
- logP [19]: 0.85

SMILES: CC(C)OC(=O)c1cc(=O)[nH]c(=O)[nH]1
- logP [5]: 0.81

SMILES: Cc1cc([N+](=O)[O-])ccc1NN=C(C#N)C#N
- logD [30]: 1.85

SMILES: CCCOC(=O)c1ccccc1O
- logP [9]: 3.8

SMILES: O=[N+]([O-])c1cc(Cl)c(Cl)cc1Cl
- logP [31]: 3.48

SMILES: N#Cc1ccc(OCC(=O)O)cc1
- logP [32]: 1.11

SMILES: Nc1c(Cl)c(F)nc(OCC(=O)O)c1Cl
- logP [22]: 1.74

SMILES: C1=CCCC=CCCC=CCC1
- logP [11]: 4.12

SMILES: CN(C(=O)C(Cl)Cl)c1ccc(O)cc1
- logP [16]: 1.78

SMILES: Nc1ccc(N)cc1
- logP [19]: -0.3

SMILES: O=NN(c1ccccc1)c1ccccc1
- logP [7]: 3.13

SMILES: O=C(O)COc1ccc(I)cc1
- logP [32]: 2.69

SMILES: Cc1nonc1-c1ccccn1
- logP [20]: 2.09

SMILES: CC(=O)CCC(C)C
- logP [15]: 1.88

SMILES: Cc1ccc(OCC(=O)O)cc1
- logP [32]: 1.95

SMILES: OCc1cc(Br)ccc1O
- logP [28]: 1.72

SMILES: Cc1nnc(-c2ccccn2)o1
- logP [20]: 0.46

SMILES: CC(C)c1cc(C(C)C)c(C(=O)O)c(C(C)C)c1
- logP [22]: 4.05

SMILES: ClC1C=CC(Cl)C(Cl)C1Cl (stereo unspecified)
- logP [24]: 3.08

SMILES: O=C(OCn1c(=O)[nH]cc(F)c1=O)Oc1ccccc1
- logD [4]: 1.11

SMILES: Oc1cc(O)nc(-c2ncncn2)n1
- logP [3]: 1.49

SMILES: CCCCCCCCCC(C)=O
- logP [15]: 4.09

SMILES: CCNc1ccccc1
- logP [29]: 2.16

SMILES: O=CNc1cccc(Cl)c1
- logP [6]: 1.9

SMILES: C=CC1CCC2OC2C1 (stereo unspecified)
- logD [26]: 2.08

SMILES: CCCNC(=O)c1cccnc1
- logP [13]: 0.66

SMILES: CCCN1CCCN(CCC)C1=S
- logP [25]: 2.83

SMILES: O=c1[nH]c2ccccc2[nH]1
- logP [25]: 1.12

SMILES: O=C(O)C(=O)Nc1ccc(Cl)cc1
- logP [27]: 2.08

SMILES: OCc1cccc(O)c1
- logP [28]: 0.5

SMILES: CNCCc1ccccc1
- logD ([23]; pH 12.5): 1.68

SMILES: Cc1ccc(C)c(NN=C(C#N)C#N)c1
- logD [30]: 2.6

SMILES: Nc1cc(Cl)cc(Cl)c1
- logP [17]: 2.6

SMILES: NS(=O)(=O)c1cc2c(cc1Cl)N=CNS2(=O)=O
- logP [18]: -0.1

SMILES: C1=C(c2ccccc2)CCN(c2ccccc2)C1
- logP [12]: 2.71

SMILES: COP(=S)(OC)Oc1ccc([N+](=O)[O-])cc1
- logP [14]: 2.86

SMILES: COc1ccc(Cl)cc1
- logP [7]: 2.78

SMILES: Cc1ccc(CN)cc1
- logD ([23]; pH 12.5): 1.58

SMILES: O=[N+]([O-])c1c(Cl)nc(-c2ncncn2)nc1Cl
- logP [3]: 2.29

SMILES: c1ccc2c(c1)CCCN2
- logP [29]: 2.29

SMILES: O=CNc1ccc(Cl)cc1
- logP [6]: 2.04

SMILES: O=C(O)CONC(=O)c1c(Cl)cccc1Cl
- logP [27]: 0.83

SMILES: NC(=O)c1cccnc1
- logP [13]: -0.34
